According to patent EP0589069A1, “Hydroquinone derivatives and antioxidants and tumor inhibitors containing them” (NIPPON HYPOX LABORATORIES INCORPORATED, priority 1992, dated 1994):

Assays:
[1] = test system: lipid of rat liver microsome; test: Inhibition activity against hyperoxidation of lipid of rat liver microsome (thiobarbituric acid method); assay type: biochemical; settings: for Inhibition ratio of lipid peroxidation (%): rat liver microsome, NADPH/ADP/FeCl₃, 37°C; for antioxidant activity (result in words on Table 2): summary of Table 2
Method: [Inhibition activity against hyperoxidation of lipid of rat liver microsome]
A plurality of male SD rats (weighing […]) were prepared. Each rat was anesthetized with pentobarbital, and then subjected to celiotomy. A cannula was introduced into the portal vein of each rat, the abdominal large veins were sectioned, and 500 ml of cold 0.9 % NaCl was injected into the portal veins.
Livers were extracted from individual rats, and the livers were cut to pieces in 1.15 % KCl and homogenized with ice cooling. Then, 1.15 % KCl was further added to obtain a 30 % liver homogenized solution.
The above homogenized solution was centrifugally separated at 8,000 g (g: gravitation acceleration) for 10 minutes, and the resultant supernatant was recovered.
The so-prepared suspension was stored at -20°C before a test described in the following (2), and it was used within 1 week after the preparation.
As test compounds, the hydroquinone derivatives obtained in Preparation Examples 1 to 12, a known hydroquinone derivative which was a compound of the formula (I) in which R¹ was methyl (hereinafter referred to as HQ1) and BHT were respectively tested on their inhibition activities against hyperoxidation of lipid in the following manner.
First, 0.1 ml of the liver microsome suspension obtained in the above (1), 0.1 ml of NADPH (final concentration 2 mM), 0.1 ml of ADP (final concentration 10 mM) and 0.1 ml of a solution of one of the test compounds whose concentration was adjusted as shown in Table 2 with 10 % DMF were added to a tris-HCl buffer (167 mM KCl, 74 mM TRIS, pH 7.4), and the resultant mixture was warmed at 37°C for 5 minutes. Then, 0.1 ml of FeCl₃ (final concentration 0.1 mM) was added, and the mixture was warmed at 37°C for 20 minutes.
The resultant reaction mixture was cooled with ice. Then, 0.2 ml of 8.1 % SDS, 1.5 ml of an acetic acid buffer (prepared by adjusting 20 % acetic acid containing 0.27 mM HCl to pH 3.5 with 10N NaOH) and 1.5 ml of 0.8 % thiobarbituric acid were added to the cooled reaction mixture, and the resultant mixture was warmed over a boiling water bath for 20 minutes. After the warming, the reaction mixture was cooled with ice, and 4 ml of an n-BuOH/pyridine mixed solution [n-BuOH:pyridine = 15:1 (volume ratio)] was added to the cooled reaction mixture. The mixture was vigorously stirred.
The reaction mixture was centrifugally separated at 2,000 rpm for 10 minutes, and the resultant supernatant was measured for an absorbance at 532 nm to determine a thiobarbituric acid reaction amount. And, on the basis of a calibration curve of […] (MDA) amount prepared by using 1,1,3,3-tetramethoxypropane, a peroxidized lipid amount was determined as an amount of formed MDA.
In Control, the solution of the test compound in 10 % DMF was replaced with 0.1 ml of a 10 % DMF solution, and the above procedures were repeated to determine a peroxidized lipid amount. In Blank, each of 0.1 ml of NDAPH, 0.1 ml of ADP and 0.1 ml of FeCl₃ were replaced with 0.1 ml of water, the solution of the test compound in 10 % DMF was replaced with 0.1 ml of a 10 % DMF solution, and the above procedures were repeated to determine a peroxidized lipid amount.
The inhibition ratio of the lipid peroxidation reaction was calculated on the basis of the following equation. Inhibition ratio (%) =[1-(OD₁-OD₃)/(OD₂-OD₃)] x 100 [formula] OD₁: Absorbance when test compound is added. OD₂: Absorbance of Control OD₃: Absorbance of Blank

[2] = test system: Salmonella TA 98; test: Antimutagenic activity test on mutagenesis of heterocyclic amine to Salmonellae (preincubation Ames test with S9 mix); assay type: cell-based; settings: mutagen IQ 0.005 µg; test compound 20.0 µg
Method: Compounds of the present invention were tested on their antimutagenic activity to heterocyclic amines of Glu-P-1·HCl, Trp-P-1 acetate and IQ by a preincubation method-applied Ames test according to the method of Diane et al (Diane F. Birt, et al., Carcinogenesis, Vol. 7, No. 6, 959-963, 1986).
That is, S9 mix (0.5 ml), 0.1 ml of a Salmonella TA 98 medium, a compound of the present invention dissolved in DMSO and 0.1 ml of one of the above mutagens were charged into a test tube, and cultured at 37°C for 20 minutes with shaking. Then, 2 ml of soft agar was added to, and mixed with, the contents in the test tube. The resultant mixture was spread over a minimal glucose agar medium, and cultured at 37°C for 48 hours, and the number of reverse mutation colonies. Two or three plates were prepared each dosage, and the test results were compared with the test result of a negative control group to which DMSO alone was added and the test result of a positive control group to which the corresponding mutagen alone was added. […]

[3] = test compound concentration 10⁻⁶M
[4] = test compound concentration 10⁻⁵M

“1-butyl-2,3,5-trimethylhydroquinone [Preparation Example 3]” was tested, and the “Inhibition ratio of lipid peroxidation (%)” value (from here on “Inhibition ratio … (%)”) [1, 3] was 75.9% and the Mutagenesis inhibition ratio [2] was 85.
“1-decylhydroquinone [Preparation Example 2]” was tested, and the “antioxidant activity (result in words on Table 2)” value [1] was “excellent antioxidant activity over the known hydroquinone derivative HQ1”, the “Inhibition ratio … (%)” value [1, 4] was 79.5% and the “Inhibition ratio … (%)” value [1, 3] was 1.8%.
For “1-octylhydroquinone [Preparation Example 1]”, the “antioxidant activity (result in words on Table 2)” value [1] was “excellent antioxidant activity over the known hydroquinone derivative HQ1”, the “Inhibition ratio … (%)” value [1, 4] was 99.7% and the “Inhibition ratio … (%)” value [1, 3] was 9.8%.
For “4-hexyl-2,3,5-trimethylhydroquinone [Preparation Example 8]”, the “Inhibition ratio … (%)” value [1, 4] was 98.3% and the “Inhibition ratio … (%)” value [1, 3] was 40%.
